Measurements reported in ChEMBL document CHEMBL1127933, “Synthesis and biological evaluation of the potent isoxazolidinyl angiotensin II receptor antagonist CL332,877 and its enantiomers” (Bioorg Med Chem Lett, 1994).

Legend:
Rattus norvegicus [1] = assay: Tested for […] in the […] rat at 3 mg/kg of oral dose; […]; type: functional, organism-based; parameters: dose 3 mg/kg
Rattus norvegicus [2] = assay: Decrease in mean arterial blood pressure in aorta coated rats 3 mg/kg of oral dose after 4 hr; type: functional
[3] = molecular target: T1, Type-1 angiotensin II receptor (Bos taurus, UniProt P25104); assay: Compound was tested for in vitro for AII receptor antagonistic activity in bovine adrenal cortex.; type: functional, tissue-based
T1 sequence (P25104 whole entry): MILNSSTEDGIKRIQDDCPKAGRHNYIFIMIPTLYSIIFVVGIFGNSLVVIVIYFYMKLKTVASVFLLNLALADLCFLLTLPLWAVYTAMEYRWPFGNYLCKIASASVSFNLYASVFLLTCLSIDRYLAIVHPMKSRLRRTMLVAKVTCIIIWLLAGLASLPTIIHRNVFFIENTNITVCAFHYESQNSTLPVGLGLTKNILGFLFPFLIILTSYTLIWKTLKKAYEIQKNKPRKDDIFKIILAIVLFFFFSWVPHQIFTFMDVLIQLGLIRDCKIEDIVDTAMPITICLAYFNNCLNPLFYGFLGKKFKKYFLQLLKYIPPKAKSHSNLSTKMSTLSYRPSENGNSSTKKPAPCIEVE

[4] = molecular target: T1, Type-1 angiotensin II receptor; assay: Binding affinity expressed as inhibitory concentration towards bovine adrenal cortex angiotensin II receptor was measured; type: tissue-based
Angiotensin II receptor [5] = molecular target: T2, Angiotensin II receptor (Rattus norvegicus, UniProt P29089+P25095+P35351); assay: Binding affinity expressed as inhibitory concentration against angiotensin II receptor of rat adrenal cortex; type: tissue-based
T2 sequence (P29089 whole entry): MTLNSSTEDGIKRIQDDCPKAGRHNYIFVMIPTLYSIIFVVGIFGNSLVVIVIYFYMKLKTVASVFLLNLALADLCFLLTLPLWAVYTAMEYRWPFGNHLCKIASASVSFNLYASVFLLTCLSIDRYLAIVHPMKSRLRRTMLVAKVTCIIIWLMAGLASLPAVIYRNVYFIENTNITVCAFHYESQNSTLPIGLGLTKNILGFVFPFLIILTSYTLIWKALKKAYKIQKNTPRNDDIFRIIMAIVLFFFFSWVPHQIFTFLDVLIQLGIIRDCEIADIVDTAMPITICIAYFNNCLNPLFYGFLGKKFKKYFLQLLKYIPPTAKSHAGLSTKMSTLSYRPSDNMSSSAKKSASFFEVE
T2 sequence (P25095 whole entry): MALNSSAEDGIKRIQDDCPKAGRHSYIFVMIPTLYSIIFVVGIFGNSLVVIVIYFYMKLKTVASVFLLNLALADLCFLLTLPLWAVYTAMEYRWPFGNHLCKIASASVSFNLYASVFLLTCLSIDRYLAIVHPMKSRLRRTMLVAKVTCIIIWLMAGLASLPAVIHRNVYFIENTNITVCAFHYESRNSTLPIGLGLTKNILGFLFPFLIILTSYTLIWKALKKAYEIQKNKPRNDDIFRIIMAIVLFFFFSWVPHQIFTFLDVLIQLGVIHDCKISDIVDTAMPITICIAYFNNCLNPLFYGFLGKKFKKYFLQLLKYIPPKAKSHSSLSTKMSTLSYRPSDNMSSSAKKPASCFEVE
T2 sequence (P35351 whole entry): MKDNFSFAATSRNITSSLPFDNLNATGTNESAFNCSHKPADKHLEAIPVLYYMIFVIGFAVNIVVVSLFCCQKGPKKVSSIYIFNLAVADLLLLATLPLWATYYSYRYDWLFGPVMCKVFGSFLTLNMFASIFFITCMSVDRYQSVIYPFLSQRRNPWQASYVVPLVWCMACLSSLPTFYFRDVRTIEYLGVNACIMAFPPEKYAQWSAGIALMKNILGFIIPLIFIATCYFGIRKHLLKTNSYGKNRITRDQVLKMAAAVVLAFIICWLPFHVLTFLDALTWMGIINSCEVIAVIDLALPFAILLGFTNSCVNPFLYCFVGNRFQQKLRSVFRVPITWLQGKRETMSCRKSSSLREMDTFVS

Rattus norvegicus [6] = assay: Change in mean arterial blood pressure in conscious renin dependent […] rats 1 mg/kg of oral dose after 5 hr; type: functional
Rattus norvegicus [7] = assay: Percent Inhibition of AII vasopressor response in SHR at 1 mg/kg oral dose in hypertensive rats after 5 h; type: functional
Angiotensin II receptor [8] = molecular target: T2, Angiotensin II receptor; assay: Binding affinity expressed as inhibitory concentration against angiotensin II of rat adrenal cortex; type: tissue-based

Structure (SMILES)	IC50 [3] [nM]	IC50 [4] [nM]	IC50 (Angiotensin II receptor [5]) [nM]	inhibition in vivo at 1 mg/kg (Rattus norvegicus [7]) [%]	Change in BP (Rattus norvegicus [6]; 1 mg/kg) [mmHg]	also measured
CCCCc1nc2ccc(C(C)(O)C[C@H]3CCCN3)cc2c(=O)n1Cc1ccc(-c2ccccc2-c2nn[nH]n2)cc1 (stereo not given in full)	–	–	–	–	–	Activity (Rattus norvegicus [1]): Weak activity; Change in BP (Rattus norvegicus [2]): 32 mmHg
CCc1nc2c(C)cc(C)nc2n1Cc1ccc(-c2ccccc2-c2nnn[nH]2)cc1 [L-158809]	27	–	–	–	–	–
CCCCc1nc2ccc([C@@]3(C)C[C@@H]4CCCN4O3)cc2c(=O)n1Cc1ccc(-c2ccccc2-c2nnn[n-]2)cc1.[Na+]	–	77	26	-10	–	Change in BP (Rattus norvegicus [6]): -3 mmHg
CCCCc1nc2ccc(C(C)(O)C[C@H]3CCCN3)cc2c(=O)n1Cc1ccc(-c2ccccc2-c2nnn[nH]2)cc1 (stereo not given in full)	3.5	–	–	–	–	–

Continued, in another order:

IC50 [3] [nM]	IC50 [4] [nM]	IC50 (Angiotensin II receptor [5]) [nM]	Structure (SMILES)	inhibition in vivo at 1 mg/kg (Rattus norvegicus [7]) [%]	Change in BP (Rattus norvegicus [6]; 1 mg/kg) [mmHg]	also measured
–	38	17	CCCCc1nc2ccc([C@]3(C)C[C@H]4CCCN4O3)cc2c(=O)n1Cc1ccc(-c2ccccc2-c2nn[n-]n2)cc1.[Na+] (stereo in doubt; 14)	40	-4	–
–	26	–	CCCCc1nc2ccc([C@]3(C)C[C@H]4CCCN4O3)cc2c(=O)n1Cc1ccc(-c2ccccc2-c2nn[n-]n2)cc1.[Na+] (stereo in doubt; 1a)	–	0	IC50 (Angiotensin II receptor [8]): 17 nM
